Results taken from patent US8569327B2, “Phenanthroindolizidine derivative and NFκB inhibitor containing same as active ingredient” (Kabushiki Kaisha Yakult Honsha, priority 2008, dated 2013).

Experiments:
NFκB = test: Inhibitory action on the NFκB activity, luciferase assay in SW480/NRE-Luc cells; assay type: cell-based, human; conditions: for NFκB inhibitory activity IC50: SW480/NRE-Luc cells, compound 1 h then 50 ng/mL TNFα 4 h, luciferase
Outline: (§1)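 Stable SW480 colon cancer lines carried luciferase driven by a 5× NFκB response element or by the SV40 promoter. Compound was added 1 h before 50 ng/mL TNFα, followed by 4 h culture at 37 °C; luminescence was read and IC50 taken as 50% inhibition of induced luciferase expression.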

SV40 promoter = SV40 promoter activity, luciferase assay in SW480/SV40-Luc cells; assay type: cell-based, human; conditions: for SV40 promoter inhibitory activity IC50: SW480/SV40-Luc cells, luciferase
Outline: as §1

[1] = test system: human colon cancer SW480 cells; test: Inhibitory action on the proliferation of SW480 cells; assay type: cell-based; conditions: 48 hours, TetraColor ONE
Outline: (§2)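 Cells seeded overnight (SW480 2000/well in 10% FBS/RPMI1640; A549, HT-29 1000/well in 10% FBS DMEM or DMEM F12 HAM), then compound-treated at 37 °C, 5% CO2 for 48 h (SW480) or 96 h (A549, HT-29). Viable cells counted by TetraColor ONE; IC50 for 50% proliferation inhibition.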

[2] = test system: human colon cancer HT-29 cells; test: Inhibitory action on the proliferation of HT-29 cells; assay type: cell-based; conditions: 96 hours, TetraColor ONE
Outline: as §2

[3] = test system: human non-small cell lung cancer A549 cells; test: Inhibitory action on the proliferation of A549 cells; assay type: cell-based; conditions: 96 hours, TetraColor ONE
Outline: as §2

[4] = test system: mice transplanted with mouse fibrosarcoma Meth A cells; test: Animal toxicity test; assay type: in vivo; conditions: intravenous days 1, 5, 9, observed three weeks
Experimental: Also, the toxicity of known phenanthroindolizidine alkaloid compounds, namely (12aS,13S)-6,7-dimethoxy-9,10,11,12,12a,13-hexahydro-9a-aza-cyclopenta[b]triphenylene-3,13-diol (known compound 1; refer to WO01/023384) and (12aS,13S)-3,6,7-trimethoxy-9,10,11,12,12a,13-hexahydro-9a-aza-cyclopenta[b]triphenylene-13-ol (known compound 2; refer to Planta Med., 2002, 68: 186-188), was simultaneously studied. To a control group, a physiological saline solution, a solvent, was administered. As a result, as shown in the following Tables 35 and 36, all the mice survived in a group administered with the compound of the present invention.

Row | SMILES | NFκB inhibitory activity IC50 (NFκB) [ng/mL] | SV40 promoter inhibitory activity IC50 (SV40 promoter) [ng/mL] | SW480 proliferation inhibitory action IC50 [1] [ng/mL] | HT-29 proliferation inhibitory action IC50 [2] [ng/mL] | A549 proliferation inhibitory action IC50 [3] [ng/mL] | Mortality rate ([4]; total dose 25 mg/kg) | Mortality rate ([4]; total dose 50 mg/kg) | IC50 (NFκB; Homo sapiens, SW480, read-out: NFκB inhibitory activity IC50) [ng/mL] | IC50 (SV40 promoter; Homo sapiens, SW480, read-out: SV40 promoter inhibitory activity IC50) [ng/mL] | IC50 ([1]; Homo sapiens, SW480) [ng/mL] | IC50 ([2]; Homo sapiens, HT-29) [ng/mL] | IC50 ([3]; Homo sapiens, A549) [ng/mL]
1 | COc1cc2c3c(c4ccc(OC(C)=O)cc4c2cc1OC)C[C@@H]1CCCN1C3.Cl [Compound 34, acetic acid(S)-6,7-dimethoxy-9,10,11,12,12a,13-hexahydro-9a-aza-cyclopenta[b]triphenylene-3-yl ester hydrochloride] | 0.026 | >100 | 0.042 | 0.52 | 0.18 | 0/5 | 0/5 | – | – | – | – | –
2 | COc1cc2c3c(c4ccc(OC(=O)N5CCC(N6CCCCC6)CC5)cc4c2cc1OC)[C@H](O)[C@@H]1CCCN1C3 [Compound 13, [1,4′]bipiperidinyl-1′-carboxylic acid(12aS,13S)-13-hydroxy-6,7-dimethoxy-9,10,11,12,12a,13-hexahydro-9a-aza-cyclopenta[b]triphenylene-3-yl ester] | 20.3 | >1000 | 19.5 | 21.6 | 7.4 | 0/5 | 0/5 | – | – | – | – | –
3 | COc1cc2c3c(c4ccc(OC(=O)c5cccs5)cc4c2cc1OC)[C@H](O)[C@@H]1CCCN1C3.Cl [Compound 19, thiophene-2-carboxylic acid(12aS,13S)-13-hydroxy-6,7-dimethoxy-9,10,11,12,12a,13-hexahydro-9a-aza-cyclopenta[b]triphenylene-3-yl ester hydrochloride] | 3.0 | >100 | 1.3 | 1.69 | 0.82 | 0/5 | 0/5 | – | – | – | – | –
4 | COC(=O)CCC(=O)Oc1ccc2c3c(c4cc(OC)c(OC)cc4c2c1)CN1CCC[C@H]1C3.Cl [Compound 36, succinic acid(S)-6,7-dimethoxy-9,10,11,12,12a,13-hexahydro-9a-aza-cyclopenta[b]triphenylene-3-yl ester methyl ester hydrochloride] | 0.64 | >100 | 0.96 | 2.3 | 0.82 | 0/5 | 0/5 | – | – | – | – | –
5 | COc1cc2c3c(c4cc(O)ccc4c2cc1OC)C[C@@H]1CCCN1C3.Cl [Compound 33, (S)-6,7-dimethoxy-9,10,11,12,12a,13-hexahydro-9a-aza-cyclopenta[b]triphenylene-2-ol hydrochloride] | – | – | – | – | – | 0/5 | 0/5 | 5.3 | > 100 | 10.8 | 6.4 | 0.97
6 | COc1cc2c3c(c4ccc(OC(=O)N(C)C)cc4c2cc1OC)[C@H](O)[C@@H]1CCCN1C3.Cl [Compound 21, dimethyl-carbamic acid(12aS,13S)-13-hydroxy-6,7-dimethoxy-9,10,11,12,12a,13-hexahydro-9a-aza-cyclopenta[b]triphenylene-3-yl ester hydrochloride] | 23.3 | >10000 | 38.3 | 24.2 | 16.4 | 0/5 | 0/5 | – | – | – | – | –
7 | COC(=O)Oc1ccc2c3c(c4cc(OC)c(OC)cc4c2c1)CN1CCC[C@H]1C3.Cl [Compound 37, carbonic acid(S)-6,7-dimethoxy-9,10,11,12,12a,13-hexahydro-9a-aza-cyclopenta[b]triphenylene-3-yl ester methyl ester hydrochloride] | 2.9 | >100 | 0.68 | 1.6 | 0.65 | 0/5 | 0/5 | – | – | – | – | –
8 | COc1cc2c3c(c4ccc(OC(C)=O)cc4c2cc1OC)C(F)[C@@H]1CCCN1C3.Cl (stereo partly drawn) [Compound 14, acetic acid(S)-13-fluoro-6,7-dimethoxy-9,10,11,12,12a,13-hexahydro-9a-aza-cyclopenta[b]triphenylene-3-yl ester hydrochloride] | 1.7 | >100 | 2.1 | 0.62 | 0.23 | 0/5 | 0/5 | – | – | – | – | –
9 | COc1cc2c3c(c4ccc(OC(=O)c5cccnc5)cc4c2cc1OC)C[C@@H]1CCCN1C3.Cl [Compound 39, nicotinic acid(S)-6,7-dimethoxy-9,10,11,12,12a,13-hexahydro-9a-aza-cyclopenta[b]triphenylene-3-yl ester hydrochloride] | 2.2 | >100 | 1.3 | 2.6 | 0.97 | 0/5 | 0/5 | – | – | – | – | –
10 | COc1cc2c3c(c4ccc(OC(C)=O)cc4c2cc1OC)[C@H](O)[C@@H]1CCCN1C3.Cl [Compound 7, acetic acid(12aS,13S)-13-hydroxy-6,7-dimethoxy-9,10,11,12,12a,13-hexahydro-9a-aza-cyclopenta[b]triphenylene-3-yl ester hydrochloride] | 0.25 | >100 | 0.41 | 0.080 | 0.63 | 0/5 | 0/5 | – | – | – | – | –
11 | COc1cc2c3c(c4ccc(OC(C)=O)cc4c2cc1OC)[C@H](OC(C)=O)[C@@H]1CCCN1C3.Cl [Compound 8, acetic acid(12aS,13S)-3-acetoxy-6,7-dimethoxy-9,10,11,12,12a,13-hexahydro-9a-aza-cyclopenta[b]triphenylene-13-yl ester hydrochloride] | 63.2 | >1000 | 17.0 | 5.8 | 1.5 | 0/5 | 0/5 | – | – | – | – | –
12 | CCOC(=O)Oc1ccc2c3c(c4cc(OC)c(OC)cc4c2c1)CN1CCC[C@H]1[C@H]3O.Cl [Compound 28, carbonic acid ethyl ester(12aS,13S)-13-hydroxy-6,7-dimethoxy-9,10,11,12,12a,13-hexahydro-9a-aza-cyclopenta[b]triphenylene-3-yl ester hydrochloride] | 1.0 | >10 | 0.65 | 0.064 | 0.037 | 0/5 | 0/5 | – | – | – | – | –
